Reference: patent publication US10934258B2, “Materials for use in an aqueous organic redox flow battery” (Utah State University, priority 2016, dated 2021)
Converted amounts (≈) assume the structure as drawn. “And” between values parts separate entries of the source, which are not always exact repeats. Equal entries are not always repeated.

Assays:
[1] = Solubility by preparing a super-saturated solution; conditions: for solubility: thermodynamic from solid
Procedure: Chemicals and Materials. All chemicals were purchased from Aldrich or TCI, stored in an Argon glovebox, and used directly. Solubility of substituted ferrocene compounds was measured in water by preparing a super-saturated solution in a volumetric cylinder. Deionized water was purged overnight using N2 before use. All experimental operations were conducted under a N2 atmosphere. Conductivity of the electrolyte solutions was measured using a Mettler Toledo conductivity meter at R.T. NMR studies were conducted using a Bruker 500 MHz NMR spectrometer. UV-Vis was collected using an Ocean Optic spectrometer. Elemental analysis was done at Atlantic Microlab.
Calculation of theoretical energy density: The theoretical energy density of the FcNCl/MV AORFB was calculated using equation 3 below, where n is the number of electrons involved into the cell reaction, C is the concentration of active materials, F is Faraday constant, 26.8 Ah/mol, V is the cell voltage, and 2 represents a factor considering both volumes of anolyte and catholyte. Solubility of FcNCl and MV was measured in water respectively by preparing a super-saturated solution. Similar solubility tests in water were applied for ferrocenecarboxylic acid, 1-1′-ferrocenedicarboxilic acid, ferrocenecarboxylic acid, and 1,1′-ferrocenedimethanol. Energy density (Wh/L)=nCFV/2 (equation 3)

[2] = Cyclic and square wave voltammetry (redox potentials); type: physicochemical; conditions: for redox potential (redox wave in cyclic voltammogram) / Exp. E1/2, first reduction / Exp. E1/2, second reduction: 4 mM in 0.5 M NaCl; for Exp. E1/2, first reduction: first redox couple; for Exp. E1/2, second reduction: second redox couple; for redox / reversible oxidation potential of catholyte: electrolyte not stated
Procedure: Electrochemical Cyclic voltammetry (CV) studies. All electrochemical CV experiments were carried out in 0.5 M NaCl electrolyte solutions. Cyclic voltammetry experiments were performed with a Gamry 1000E potentiostat. All potentials were referenced to NHE according to the known MV^2+/1+ redox couple (−0.45 V vs NHE). The working electrode (1 mm PEEK-encased glassy carbon, Cypress Systems EE040) was polished using Al2O3(BAS CF-1050, dried at 150° C. under vacuum) suspended in deionized H2O, then rinsed with deionized H2O and dried with an air flow. The reference electrode was a silver wire coated with a layer of AgCl and suspended in a solution of 0.5 M NaCl electrolyte. A glassy carbon rod (Structure Probe, Inc.) was used as the counter electrode.
Cyclic and square wave voltammetry studies: All experiments were conducted in an […], 0.5 M NaCl aqueous solution, and performed with a Gamry 1000E potentiostat. A 1 mm PEEK encased glassy carbon disk was used as the working electrode. The working electrode was polished with 0.05 micron Al2O3 powder and rinsed with deionized H2O. A glassy carbon rod was used as the counter electrode. A silver wire coated with AgCl and suspended in 3.0 M KCl electrolyte was used as the reference electrode.
The redox potentials were calculated directly versus MV which was derived from the Born-Haber method. This calculation predicts the redox potential of the viologen by comparing it to the experimentally determined potentials for MV. Square wave voltammetry was employed to most accurately measure E1/2 for the two reductions of viologen compounds (FIG. 42). The calculation of the theoretical redox potential vs MV can be simplified as shown below: […]

[3] = RDE linear sweep voltammetry with Levich and Tafel analysis; type: physicochemical; conditions: 1.0 mM in 0.5 M NaCl
Procedure: Electrochemical RDE studies: All linear sweep voltammetry (LSV) studies were conducted using a Gamry 1000E potentiostat in a three-electrode configuration, a glassy carbon disk working electrode (5 mm Teflon encased glassy carbon disk, Pine Research Instrumentation) along with a glassy carbon counter electrode and a Ag/AgCl reference electrode same as used in CV studies. Before data collection, the disk electrode was prepared using the procedure described in the CV studies. The electrode was then rotated at from 300 to 2400 rpm with an increment of 300 rpm, which was controlled by a Pine MSR rotator system. LSV scans were recorded at a rate of 5 mV/s from 0.3 V to 0.8 V vs NHE. At each rotation rate, the LSV were recorded 3 times to ensure repeatability. The limiting currents (i.e. the mass transport-limited current intensity) were taken at 0.7 V vs NHE for FcNCl and plotted over the square root of the rotation rate (rad/s). The data were fitted to yield a straight Levich plot, with the slope defined by the Levich equation (equation 1 below), where n=1 for one electron process, Faraday's constant F=96485 C/mol, electrode area A=0.1935 cm^2, FcNCl concentration Co=1.0 mM, D is diffusion coefficient, kinematic viscosity n=0.009 cm^2/s for 0.5 M NaCl solution. The calculations yielded the diffusion coefficients of FcNCl as 3.25×10^−6 cm^2/s. A plot of overpotential versus log10(iK) was constructed for the LSV data collected at […] for FcNCl where iK is the kinetic current for the oxidation of FcNCl. […] Levich plot slope=0.620nFACOD^2/3v^−1/6 (equation 1) i0=FACOk0 (equation 2)
Electrochemical RDE studies: Linear sweep voltammetry (LSV) experiments were conducted using a Gamry 1000E potentiostat with a three-electrode system. A 5 mm rotating glassy carbon disk encased in Teflon served as the working electrode. A glassy carbon rod was used as the counter electrode. A Ag/AgCl wire served as the reference electrode. The working electrode was cleaned using the same method as in the CV experiments. During the experiments, the working electrode rotated from 300 rpm to 2400 rpm at increments of 300 rpm. Three scans at each rotation rate were collected to ensure accuracy. (NPr)2V: LSV scans were conducted at a rate of 5 mV/s from 0.1 V to −1.2 V versus NHE. The limiting currents (mass transport-limited current intensity) at each rotation rate were recorded at −0.57 V and −0.95 V versus NHE. […] The slopes of these fitted lines are defined by the Levich equation, Levich Plot Slope=0.620nFAC0D^2/3v^−1/6 (equation 1)
[…] Plots of overpotential versus log10(ik) were constructed from the 2400 rpm LSV, where ik is the kinetic current of each reduction of (NPr)2V. The x-intercept of the fitted Tafel plot represents the log of the exchange current i0 that is defined by: i0=FAC0k^0 (equation 2)
where F, A, and C0 are defined above, and k^0 represents the electron transfer rate constant.
(NPr)(SPr)V, (Me)(NPr)V, (SPr)2V, and [FcN^Et]Br: LSV scans were collected and analyzed using the same techniques described for (NPr)2V.

[4] = Conductivity of the electrolyte solutions; type: physicochemical; set-up: electrolyte conductivity: unit not given here
Procedure: Chemicals and Materials. […] Deionized water was purged overnight using N2 before use. All experimental operations were conducted under a N2 atmosphere. […] UV-Vis was collected using an Ocean Optic spectrometer. Elemental analysis was done at Atlantic Microlab.

Compound | solubility ([1]; water) [mM] | redox potential (redox wave in cyclic voltammogram) [2] | Exp. E1/2, first reduction [2] [V vs. NHE] | Exp. E1/2, second reduction [2] [V vs. NHE] | diffusion constant, D, first reduction ([3]; Levich) | diffusion constant, D, second reduction ([3]; Levich) | electron transfer rate constant, k^0, first reduction ([3]; Tafel) | electron transfer rate constant, k^0, second reduction ([3]; Tafel) | solubility in H2O [1] [mM] | solubility in water, [C] [1] [mM] | other results
C[N+](C)(C)CCC[c-]1cccc1.[Cl-].[Fe+2].c1cc[cH-]c1 [prop-FcNCl, (ferrocenylpropyl)trimethylammonium chloride] | ~2200 |  |  |  |  |  |  |  |  |  | 
disodium (ferrocenyl)sulfurtrioxide [FcS] |  | ~0.77 V vs NHE and 1.0 V vs NHE |  |  |  |  |  |  |  |  | 
C[N+](C)(C)CCC[n+]1ccc(-c2cc[n+](CCC[N+](C)(C)C)cc2)cc1.[Br-].[Br-].[Br-].[Br-] [(NPr)2V, 1,1′-bis[3-(trimethylamonium)propyl]-4,4′-bipyridinium, tetrabromide] |  |  | −0.35 | −0.72 | 3.88×10^−6 cm^2/s | 3.84×10^−6 cm^2/s | 4.32e-06 cm/s and 4.32e-05 cm/s | 2.46e-06 cm/s and 2.46e-05 cm/s | 1600 | 1600 | effective redox potential (average of the two reductions) ([2]; average of −0.35 and −0.72 V): −0.54 V
[I-].[K+] [KI, reference compound] |  |  |  |  |  |  |  |  |  |  | redox / reversible oxidation potential of catholyte [2]: 0.65 V vs NHE
CC1(C)CC([N+](C)(C)CCC[N+](C)(C)C)CC(C)(C)N1O [4-N^NPr-TEMPO, N^1, N^1, N^1, N^3, N^3,2,2,6,6-nonamethyl-N^3-(piperidinyloxy)propane-1,3-bis(ammonium) dichloride] | 2300 |  |  |  |  |  |  |  |  |  | redox / reversible oxidation potential of catholyte [2]: 1.06 V vs NHE
CC(C[N+](C)(C)C[c-]1cccc1)[N+](C)(C)C.[Br-].[Br-].[Fe+2].c1cc[cH-]c1 (stereo not shown) [FcN2, N^1-ferrocenylmethyl-N^1, N^1, N^2, N^2, N^2-pentamethylpropane-1,2-diaminium dibromide] |  | 0.62 V vs NHE |  |  |  |  |  |  |  |  | 
C[N+](C)(C)CCC[n+]1ccc(-c2cc[n+](CCCS(=O)(=O)[O-])cc2)cc1.[Br-].[Br-] [(NPr)(SPr)V, 1′-[3-(trimethylammonium)propyl]-4′-pyridinium-1-[3-sulfonatopropyl]-4-pyridinium dibromide] |  |  | −0.37 | −0.74 | 4.96 × 10^−6 cm^2/s | 5.04 × 10^−6 cm^2/s | 3.5e-05 cm/s | 2.09e-05 cm/s | 1600 | 1600 | 
O=S(=O)([O-])CCC[n+]1ccc(-c2cc[n+](CCCS(=O)(=O)[O-])cc2)cc1 [(SPr)2V, 1,1′-bis[3-sulfonatopropyl]-4,4′-bipyridinium] | 2000 (≈ 801 mg/mL) |  | −0.43 | −0.79 | 3.26×10^−6 cm^2/s | 2.81 × 10^−6 cm^2/s | 1.49e-05 cm/s | 3.96e-05 cm/s |  | 2000 (≈ 801 mg/mL) | conductivity ([4]; 0.6 M in 1.5 M KCl): 103.2 mS/cm; solubility ([1]; saline or isotonic): 1700 mM (≈ 681 mg/mL)
C[N+](C)(C)C[c-]1cccc1.[Cl-].[Fe+2].c1cc[cH-]c1 [FcNCl, (ferrocenylmethyl)trimethylammonium chloride] | ~4000 | 0.60 V vs NHE |  |  |  |  |  |  |  |  | electrolyte conductivity ([4]; 0.5 M in 2.0 M NaCl): 135; diffusion coefficient (oxidation) ([3]; Levich): 3.25×10^−6 cm^2/s and 3.74×10^−6 cm^2/s; electron transfer rate constant k0 (oxidation) ([3]; Tafel): 2.29e-05 cm/s and 3.66e-05 cm/s; exchange current i0 ([3]; Tafel X-intercept): 0.7 μA
CC[N+](C)(C)C[c-]1cccc1.[Br-].[Fe+2].c1cc[cH-]c1 [[FcN^Et]Br, (ferrocenylmethyl)ethyldimethylammonium bromide] | 3750 | 0.60 V vs NHE |  |  |  |  |  |  |  |  | 
[Br-].[Br-].[Zn+2] [ZnBr2, reference compound] |  | −1.2 V vs NHE |  |  |  |  |  |  |  |  | 
CC1(C)CC([N+](C)(C)C)CC(C)(C)N1[O].[Cl-] [4-N^Me-TEMPO, N, N, N, 2,2,6,6-Heptamethylpiperidinyloxy-4-ammonium chloride] |  |  |  |  |  |  |  |  | 2500 |  | redox / reversible oxidation potential of catholyte [2]: 1.06 V vs NHE
C[n+]1ccc(-c2cc[n+](CCC[N+](C)(C)C)cc2)cc1.[Cl-].[Cl-].[Cl-] [(Me)(NPr)V, 1′-methyl-4′-pyridinium-1-[3-(trimethylaminium)propyl]-4-pyridinium trichloride] |  |  | −0.39 | −0.78 | 5.40 × 10^−6 cm^2/s | 5.29 × 10^−6 cm^2/s | 2.39e-05 cm/s | 1.84e-05 cm/s | 1800 | 1800 | 
